Two molecules from patent US20120122115A1, “Bacterial quorum sensing biosensor” (priority 2006, published 2012) can be followed below.

Experiment [1] concerns the target CLPY biosensor (CFP-LuxP-YFP fusion) (Vibrio harveyi, UniProt P54300, D303A). Kind of experiment: CLPY FRET binding affinity determination. Set-up: species or system V. harveyi. The procedure: The YFP or CFP fluorescence response of wild-type and mutant forms of CLPY (1.0 mL, 0.015 mg/mL) to different ligands is measured 5 minutes after addition of the ligand to the protein at room temperature. No time-dependent changes in the CLPY FRET ratio are observed after incubation for 5 minutes. All BAI-2 dilutions are carried out in a borate-free buffer to maintain the DPD:borate ratio (1:4). The CLPY FRET ratio response to different BAI-2 concentrations is used to generate the ligand binding saturation curve. For the determination of the binding affinity (Kd) and the binding stoichiometry n, a nonlinear regression analysis equation (Equation 4) is used as shown below: […]
where R is the observed CLPY FRET ratio response for different ligand concentrations (s) and Rmax and Rmin represent the ligand-free and ligand-saturated FRET ratios, respectively.

For experiment [2], the system named is V. harveyi strain MM30 (luxS-). Kind of experiment: Bacterial reporter bioassay (luminescence) and EC50 determination. The settings on record: MM30 in borate-free AB medium. It counts as cell-based. As to the method: V. harveyi strain MM30 (luxS^−) is grown overnight at 28° C. for 16 hours and diluted 1:5000 in fresh borate-free AB medium. Bacteria (90 μL) are added to a 96-well microtiter plate containing 10 μL dilutions of the sample and incubated for 4 hours at 30° C. Luminescence is read using a Wallac Victor2 multimode plate reader (Perkin-Elmer). The BAI-2 concentration required for 50% maximum luminescence response (EC50) is determined using a relationship based on the luminescence response L for different ligand concentrations (s)
where Lmin and Lmax represent the minimum and maximum luminescence responses, respectively, at the time of measurement.

As for `OB(O)O` [borate], the “CLPY FRET response” value in experiment [1] (borate ≦400 μM) is “did not exhibit any detectable FRET response”. For the same molecule, in experiment [2], the “bacterial reporter strain luminescence response (qualitative)” value is “did not respond”.

Take `CC(=O)C(=O)C(O)CO` (stereo not shown) [DPD, 4,5-dihydroxy-2,3-pentanedione]: the “CLPY FRET response” value in experiment [1] (DPD ≦100 μM) was “did not exhibit any detectable FRET response”. The “bacterial reporter strain luminescence response (qualitative)” value in experiment [2] is reported as “did not respond”.
